# Test results as given in patent US20220184222A1, “BICYCLE TOXIN CONJUGATES AND USES THEREOF” (BicycleTx Limited, priority 2019, published 2022).
# Starred links: 1 amine or outer side, 2 acyl side, 3 side chain; linkers in the order of their positions; H or OH if unused. Non-standard residues stand in square brackets, D forms with d. Residues, ends and D or L forms follow the SMILES beside them. *: point of attachment. Dolaproine = CO[C@@H]([C@@H]1CCCN1)[C@@H](C)C(=O)O; Dil = CC[C@H](C)[C@H](NC)[C@@H](CC(=O)O)OC; PABC = O=C(OCc1ccc(N[*:1])cc1)[*:2]; X1 = O=C(CCCC(=O)*)ON1C(=O)CCC1=O; X2 = C[C@@H](N*)[C@@H](O)c1ccccc1; Cit = NC(=O)NCCC[C@H](N)C(=O)O; NMeV = CN[C@H](C(=O)O)C(C)C
# How the values were obtained:
# PC-3 xenograft = assay: In vivo efficacy in PC-3 xenograft, male Balb/c nude mice (Example 3); parameters: species or system Mus Musculus
# Experimental: The objective of the research is to evaluate the in vivo anti-tumor efficacy of test articles in treatment of PC-3 xenograft in Balb/c nude mice.
# The tumor cells were maintained in F-12K medium supplemented with 10% heat inactivated fetal bovine serum at 37° C. in an atmosphere of 5% CO2 in air. The tumor cells were routinely subcultured twice weekly. The cells growing in an exponential growth phase were harvested and counted for tumor inoculation.
# Each mouse was inoculated subcutaneously at the right flank with PC-3 tumor cells (10×10^6) in 0.2 ml of PBS for tumor development. 52 animals were randomized when the average tumor volume reached 454 mm^3. The test article administration and the animal numbers in each group were shown in the experimental design table.
# The major endpoint was to see if the tumor growth could be delayed or mice could be cured. Tumor volume was measured three times weekly in two dimensions using a caliper, and the volume was expressed in mm3 using the formula: V=0.5 a×b^2 where a and b are the long and short diameters of the tumor, respectively. The tumor size was then used for calculations of T/C value. The T/C value (in percent) is an indication of antitumor effectiveness; T and C are the mean volumes of the treated and control groups, respectively, on a given day.
# TGI was calculated for each group using the formula: TGI (%)=[1−(Ti−T0)/(Vi−V0)]×100; Ti is the average tumor volume of a treatment group on a given day, T0 is the average tumor volume of the treatment group on the day of treatment start, Vi is the average tumor volume of the vehicle control group on the same day with Ti, and V0 is the average tumor volume of the vehicle group on the day of treatment start.
# Tumor growth inhibition rate for test articles in the PC-3 xenograft model was calculated based on tumor volume measurements at day 20 after the start of the treatment.
# Panc163 = assay: PDAC PDX Panc163 xenograft efficacy (Example 5); assay type: in vivo, NSG mice; details: 3 mg/kg intravenously weekly, 4-week treatment period
# Experimental: BT5528 and Vehicle were prepared as described in the examples above, and tested in treatment of Pancreatic Ductal Adenocarcinoma (PDAC) in PDX models. PDX models effectively capture patient responses to oncology therapy in a heterogeneous cohort of patients with solid tumors with 80-100% correlation between the PDX and patient response (Izumchenko et al. 2017)
# Pancreatic ductal adenocarcinoma patient derived xenograft tumors (PDAC PDX; Panc033 and Panc163) were implanted subcutaneously from source tumors into the flank of NSG mice. Tumor bearing animals were randomized to receive intravenously a weekly dosing of vehicle or 3 mg/kg BT5528. Tumor sizes were monitored by caliper measurements.
smiles,measurement,setting,value
CC[C@H](C)[C@@H]([C@@H](CC(=O)N1CCC[C@H]1[C@H](OC)[C@@H](C)C(=O)N[C@H](C)[C@@H](O)c1ccccc1)OC)N(C)C(=O)[C@@H](NC(=O)[C@H](C(C)C)N(C)C(=O)OCc1ccc(NC(=O)[C@H](CCCNC(N)=O)NC(=O)[C@@H](NC(=O)CCCC(=O)ON2C(=O)CCC2=O)C(C)C)cc1)C(C)C [BT5528] (X1-V[Cit][PABC][NMeV]V[Dil][Dolaproine]-X2),tumor relapse after ceasing the treatment,PC-3 xenograft; 0.5 mg/kg qw or 0.5 mg/kg q2w,obvious tumor relapse after ceasing the treatment
same,tumor relapse after ceasing the treatment,PC-3 xenograft; 1.5 mg/kg q2w,tumor relapse after ceasing the treatment
same,tumor relapse after ceasing the treatment,PC-3 xenograft; 1.5 mg/kg qw,didn't show any tumor relapse until day 48
same,further treatment after relapse,PC-3 xenograft; 1.5 mg/kg qw from day 52 in mice first treated with 0.5 mg/kg qw or q2w,worked well on the tumor regression
same,further dosing after relapse,PC-3 xenograft; 1.5 mg/kg qw from day 52 in mice first treated with 1.5 mg/kg q2w,didn't work on complete tumor regression
same,T/C,"PC-3 xenograft; 0.167 mpk i.v. qw, day 20",50.2%
same,TGI,"PC-3 xenograft; 0.167 mpk i.v. qw, day 20",61.4%
same,Tumor volume,"PC-3 xenograft; 0.167 mpk i.v. qw, day 20",1188 mm^3
same,T/C,"PC-3 xenograft; 0.5 mpk i.v. q2w, day 20",22.4%
same,TGI,"PC-3 xenograft; 0.5 mpk i.v. q2w, day 20",96.0%
same,Tumor volume,"PC-3 xenograft; 0.5 mpk i.v. q2w, day 20",530 mm^3
same,Tumor volume,"PC-3 xenograft; 0.5 mpk i.v. qw, day 0",451 mm^3
same,Tumor volume,"PC-3 xenograft; 0.5 mpk i.v. qw, day 2",622 mm^3
same,Tumor volume,"PC-3 xenograft; 0.5 mpk i.v. qw, day 4",519 mm^3
same,Tumor volume,"PC-3 xenograft; 0.5 mpk i.v. qw, day 6",460 mm^3
same,Tumor volume,"PC-3 xenograft; 0.5 mpk i.v. qw, day 8",398 mm^3
same,Tumor volume,"PC-3 xenograft; 0.5 mpk i.v. qw, day 10",329 mm^3
same,Tumor volume,"PC-3 xenograft; 0.5 mpk i.v. qw, day 13",260 mm^3
same,Tumor volume,"PC-3 xenograft; 0.5 mpk i.v. qw, day 15",249 mm^3
same,Tumor volume,"PC-3 xenograft; 0.5 mpk i.v. qw, day 17",231 mm^3
same,T/C,"PC-3 xenograft; 0.5 mpk i.v. qw, day 20",9.9%
same,TGI,"PC-3 xenograft; 0.5 mpk i.v. qw, day 20",111.4%
same,Tumor volume,"PC-3 xenograft; 0.5 mpk i.v. qw, day 20",234 mm^3
same,T/C,"PC-3 xenograft; 1.5 mpk i.v. q2w, day 20",5.4%
same,TGI,"PC-3 xenograft; 1.5 mpk i.v. q2w, day 20",117.0%
same,Tumor volume,"PC-3 xenograft; 1.5 mpk i.v. q2w, day 20",128 mm^3
same,Tumor volume,"PC-3 xenograft; 1.5 mpk i.v. qw, day 0",458 mm^3
same,Tumor volume,"PC-3 xenograft; 1.5 mpk i.v. qw, day 2",587 mm^3
same,Tumor volume,"PC-3 xenograft; 1.5 mpk i.v. qw, day 4",494 mm^3
same,Tumor volume,"PC-3 xenograft; 1.5 mpk i.v. qw, day 6",363 mm^3
same,Tumor volume,"PC-3 xenograft; 1.5 mpk i.v. qw, day 8",283 mm^3
same,Tumor volume,"PC-3 xenograft; 1.5 mpk i.v. qw, day 10",237 mm^3
same,Tumor volume,"PC-3 xenograft; 1.5 mpk i.v. qw, day 17",155 mm^3
same,T/C,"PC-3 xenograft; 1.5 mpk i.v. qw, day 20",5.5%
same,TGI,"PC-3 xenograft; 1.5 mpk i.v. qw, day 20",117.2%
same,Tumor volume,"PC-3 xenograft; 1.5 mpk i.v. qw, day 20",131 mm^3
same,treatment of relapsed Docetaxel-pretreated mice,PC-3 xenograft; BT5528 1.5 mg/kg qw from day 42,worked well on tumor regression
same,measurable tumor regression by day after dosing,PC-3 xenograft; PC-3 xenograft,≤ 4 days
same,efficacy with intermittent dosing,PC-3 xenograft; dosing every 2 weeks,efficacious with intermittent dosing
same,anti-tumor activity (tumor size by caliper),Panc163,significant anti-tumor activity from reduced tumor growth rate to decreasing tumor volumes
